Values quoted from earlier work, collected in patent US8455508B2, “Sustained release parenteral formulations of buprenorphine” (priority 2007, dated 2013).

Conditions: in oil

CCCCCCCCCC(=O)Oc1ccc2c3c1OC1C4(OC)CCC5(CC4C(C)(O)C(C)(C)C)C(C2)N(CC2CC2)CCC315 (stereo not shown) [buprenorphine decanoate]
duration of action relative to buprenorphine HCl in saline: 14 fold
